pIC50: −log10 of the molar value. Like-named read-outs stand apart in the source and are kept apart here.
Experiments:
[1] = tested on: A549 cells with Kras G12S mutation; test: Cell proliferation inhibition experiment, 3D spheroid, CellTiter-Glo (Test Example 1); format: cell-based, human; conditions: 5 days
Method in brief: (§1)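 NCI-H358 (800 cells/well) and A549 (400 cells/well) grown overnight as 3D spheroids in 2% FBS medium, then exposed to compound dilution series (3.16-fold, 0.1% DMSO) for 5 days. CellTiter-Glo luminescence read; inhibition relative to DMSO and blank, IC50 by four-parameter fit.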

[2] = tested on: NCI-H358 cells with Kras G12C mutation; test: as above; format: cell-based, human; conditions: 5 days
Method in brief: as §1

[3] = tested on: phosphorylated ERK in MIA PaCa2 cells with Kras G12C mutation; test: p-ERK HTRF assay for cells (Test Example 2); format: cell-based, human
Method in brief: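 MIA PaCa2 cells (2.5E4/well, seeded overnight) treated 2 h with compound in a 3.16-fold series at 0.1% DMSO. Cells lysed 30 min; p-ERK read by HTRF after 4 h antibody incubation. Inhibition relative to DMSO and blank; IC50 by four-parameter fit.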

[4] = Pharmacokinetic evaluation on mice, intragastric (PO) administration (Test Example 6); format: in vivo; conditions: mouse, PO 15 mg/kg, male CD-1 mice, plasma; for Cmax: read-out: Cmax; for Tmax: read-out: Tmax; for bioavailability: read-out: F (bioavailability)
Experimental: Experimental objective: male CD-1 mice were chosen as tested animals, and the LC-MS-MS method was employed to measure the concentrations of a tested compound in blood plasma of a mouse intravenously and intragastrically administrated with the tested compound at different times. The pharmacokinetic behaviors of tested compounds in mice were studied, and the pharmacokinetic characteristics thereof were evaluated.
Experimental scheme: experimental animals: 18 healthy adult male CD-1 mice (6 to 8 weeks old, and body weight about 30 g) were divided into 6 groups according to the principle of similar body weights: 3 mice in each of IV groups (3 groups), and 3 mice in each of PO groups (3 groups). The animals were purchased from Shanghai Jihui Laboratory Animal Care Co., Ltd.
Formulation: IV group: taking 10 mL of sample solution for example, 4 mg of sample was weighed, orderly added with 0.5 mL of DMSO and […], then added with […] of HP-p-CD, finally added with water to a constant volume of 10 mL, and stirred and subjected to ultrasonic irradiation, thereby obtaining a 0.4 mg/mL clear solution. PO group: an appropriate amount of sample was weighed, orderly added with appropriate amounts of Labrasol and water in a volume ratio of 10:40, and stirred and subjected to ultrasonic irradiation, thereby obtaining a 1.5 mg/mL uniform solution.
Administration: after being deprived of food for one night, the IV groups were intravenously administrated with the formulated solutions, respectively, with an injection volume of 5 mL/kg and a dosage of 2 mg/kg. The PO groups were intragastrically administrated with the formulated solutions, respectively, with an injection volume of […] and a dosage of 15 mg/kg.
Experimental operations: after the intravenous injection groups and the intragastric administration groups of the male CD-1 mice were administrated with the tested compounds, 110 ul of blood was sampled at the following time points: 0.0833, 0.25, 0.5, 1, 2, 4, 6, 8, and 24 hours. The sampled blood was placed into an anticoagulant tube which was added with K2EDTA in advance and preserved in dry ice. The tube was centrifuged for 15 minutes to separate blood plasma, and the separated blood plasma was preserved at −70° C. The animals were allowed to be fed after 4 hours of administration. The LC-MS-MS method was employed to measure the concentration of the tested compounds in the blood plasma after the intravenous and intragastric administration to the mice. The linear range of the method was 1-3000 ng/ml. The blood plasma samples were analyzed after protein precipitation with ACN.

[5] = Homo sapiens, MIA PaCa-2, 2 h, MIA PaCa2 cells, 2 hours with compound, read-out: p-ERK IC50
[6] = MIA PaCa2 cells, 2 hours with compound, read-out: p-ERK IC50

SMILES | pIC50 ([1]; Homo sapiens, A549, 120 h) | pIC50 ([2]; Homo sapiens, NCI-H358, 120 h) | pIC50 [3, 5] | Cmax [4] [ng/mL] | Tmax [4] [h] | pIC50 [1] | pIC50 [2] | pIC50 [3, 6] | bioavailability [4] [%] | pIC50 ([3]; Homo sapiens, MIA PaCa-2, 2 h, read-out: p-ERK IC50, MIA PaCa2 cells, 2 hours with compound) | pIC50 ([3]; read-out: p-ERK IC50, MIA PaCa2 cells, 2 hours with compound)
C=CC(=O)N1CCN2c3c(c(=O)n(-c4c(C)ccnc4C(C)C)c4nc(-c5c(O)cccc5F)c(F)cc34)OC[C@H]2C1 [Compound Z1, (4aR)-3-acryloyl-11-fluoro-10-(2-fluoro-6-hydroxyphenyl)-8-(2-isopropyl-4-methylpyridin-3-yl)-1,2,3,4,4a,5-hexahydropyrazino[1′,2′:4,5][1,4]oxazino[2,3-c][1,8]naphthyridin-7(8H)-one] | < 5.00 | 7.51 | 6.36 | 2600 | 0.25 | – | – | – | – | – | –
C=CC(=O)N1C[C@@H]2C(=O)N(C)c3c(c4cc(F)c(-c5c(O)cccc5F)nc4n(-c4c(C)ccnc4C(C)C)c3=O)N2C[C@H]1C (single isomer, unassigned) [Compound Z10-2] | – | – | – | 3960 | 1 | 4.61 | 8.40 | 7.47 | 59.2 | – | –
C=CC(=O)N1CCN2c3c(c(=O)n(-c4c(C)ccnc4C(C)C)c4nc(-c5c(O)cccc5F)c(Cl)cc34)N(C)C(=O)[C@H]2C1 (single isomer, unassigned) [Compound Z25-2] | – | – | – | 6640 | 1.93 | < 4.52 | 8.52 | – | 93.5 | 7.54 | –
C=CC(=O)N1CCN2c3c(c(=O)n(-c4c(C(C)C)ncnc4C(C)C)c4nc(-c5c(O)cccc5F)c(Cl)cc34)N(C)C(=O)[C@H]2C1 [Compound Z48] | < 5.00 | 8.52 | 7.28 | 1250 | 0.5 | – | – | – | 38.1 | – | –
C=CC(=O)N1CCN2c3c(c(=O)n(-c4c(C)ccnc4C(C)C)c4nc(-c5c(O)cccc5F)c(F)cc34)N(C)C(=O)[C@H]2C1 (single isomer, unassigned) [Compound Z9-2] | – | – | 6.66 | 13200 | 1 | < 5.00 | 7.82 | – | 103 | – | –
C=CC(=O)N1CCN2c3c(c(=O)n(-c4c(C(C)C)ncnc4C(C)C)c4c(F)c(-c5c(O)cccc5F)c(Cl)cc34)NC(=O)[C@H]2C1 (single isomer, unassigned) [Compound Z37-1] | – | – | 7.96 | – | – | < 4.52 | 9.15 | – | – | – | –
C=CC(=O)N1C[C@@H]2C(=O)N(C)c3c(c4cc(Cl)c(-c5c(O)cccc5F)nc4n(-c4c(C)ccnc4C(C)C)c3=O)N2C[C@H]1C (single isomer, unassigned) [Compound Z27-2] | – | – | – | 3660 | 1.74 | 4.72 | 9.00 | 7.96 | 96.8 | – | –
[2H]C([2H])([2H])N1C(=O)[C@H]2CN(C(=O)C=C)CCN2c2c1c(=O)n(-c1c(C)ccnc1C(C)C)c1nc(-c3c(O)cccc3F)c(Cl)cc21 (single isomer, unassigned) [Compound Z26-2] | – | – | – | – | – | < 4.52 | 8.52 | – | – | – | 7.21
